Read-outs that look alike come from different tables or passages of the source.
Experiments:
Format in all cases: cell-based
[1] = test system: phosphorylation of AKT (pAKT) in SKBR3 cells express WT PI3Ka; assay: In vitro cell pAKT (Ser473) HTRF, SKBR3 cells; details: cellular pAKT
In short: (§1)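 pAKT (Ser473) was quantified by HTRF in lysates from cells exposed 6 h at 37 °C to 10-point compound series, with T47D in insulin-supplemented RPMI/10% FBS and SKBR3 in McCoy's 5a/10% FBS. Controls: 0.1% DMSO (high) and 10 uM alpelisib (low). IC50 from sigmoidal curve fitting.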

[2] = test system: phosphorylation of AKT (pAKT) in T47D cells expressing mutant PI3Ka (H1047R); assay: In vitro cell pAKT (Ser473) HTRF, T47D cells; details: cellular pAKT, T47D cells, mutant PI3Ka (H1047R), 6 hours, read-out: Avg T-47D IC50
In short: as §1

[3] = test system: T47D cells expressing mutant PI3Ka (H1047R); assay: In vitro cell proliferation, T47D cells (CellTiter-Glo); details: inhibition of proliferation, read-out: Avg T-47D EC50
In short: (§2)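 T47D cells in RPMI/10% FBS/insulin (0.2 units/mL) or SKBR3 in McCoys 5a/10% FBS, 1,500 cells/well, grown 72 h at 37 °C with 10-point compound dilutions. CellTiter-Glo luminescence; % inhibition normalised to 0.1% DMSO and 10 uM Alpelisib, EC50 from four-parameter curve fit.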

[4] = test system: SKBR3 cells express WT PI3Ka; assay: In vitro cell proliferation, SKBR3 cells (CellTiter-Glo); details: inhibition of proliferation
In short: as §2

Compound	IC50 ([1]; 6 hours) [nM]	IC50 [2] [nM]	EC50 ([3]; 72 hours) [nM]	EC50 ([4]; 72 hours) [nM]	IC50 ([1]; Homo sapiens, SK-BR-3, 6 h) [nM]	IC50 ([2]; Homo sapiens, T47D, 6 h) [nM]	EC50 ([3]; Homo sapiens, T47D, 72 h) [nM]	EC50 ([4]; Homo sapiens, SK-BR-3, 72 h) [nM]
Cc1ncc(F)cc1-c1ncc(-c2cc3c([C@@H](C)Nc4cccc(F)c4C(=O)O)cc(F)cc3c(=O)n2C)cc1F [Example 440]					2000 to 15000	1 to 500	1 to 500	> 15000
C[C@@H](Nc1cccc(F)c1C(=O)O)c1cc(F)cc2c(=O)n(C)c(-c3ccc(OCC(F)(F)F)nc3)cc12 [Example 441]	> 15000	1 to 500	500 to 2000	> 15000				
CC(Nc1ccccc1C(=O)O)c1cc(F)cc2c(=O)n(C)c(-c3ccc(OC4CC(F)C4)nc3)cc12 (stereo not drawn) [Example 447]	> 15000	1 to 500	1 to 500	> 15000				
CC(Nc1ccccc1C(=O)O)c1cc(F)cc2c(=O)n(C)c(-c3ccc(OC4CC(F)C4)nc3)cc12 (stereo not drawn) [Example 448]	> 15000	1 to 500	1 to 500	> 15000				
C[C@@H](Nc1cccc(F)c1C(=O)O)c1cc(F)cc2c(=O)n(C)c(C3CC3)cc12 [Example 454]					> 15000	1 to 500	1 to 500	> 15000
C[C@@H](Nc1ccccc1C(=O)O)c1cc(F)cc2c(=O)n(C)c(C3CC3)cc12 [Example 455]					> 15000	1 to 500	1 to 500	> 15000
CC(Nc1cccc(F)c1C(=O)O)c1cc(F)cc2c(=O)n(C)c(-c3ccc(OCC(F)F)nc3)cc12 (stereo not drawn) [Example 457]	> 15000	1 to 500	1 to 500	> 15000				
C[C@@H](Nc1ccccc1C(=O)O)c1cc(F)cc2c(=O)n(C)c(-c3cnc(OC4CC4)c(F)c3)cc12 [Example 458]					> 15000	1 to 500	1 to 500	> 15000
Cc1ncc(-c2ncc(-c3cc4c(C(C)Nc5ccccc5C(=O)O)cc(F)cc4c(=O)n3C)cc2F)cc1F (stereo not drawn) [Example 459]	2000 to 15000	1 to 500	1 to 500	2000 to 15000				
Cc1ccc(N2CCN(c3cc4c(C(C)Nc5ccccc5C(=O)O)cc(F)cc4c(=O)n3C)CC2)c(C)n1 (stereo not drawn) [Example 460]	500 to 2000	1 to 500	1 to 500	500 to 2000				
CC(Nc1ccccc1C(=O)O)c1cc(F)cc2c(=O)n(C)c(-c3ccc(OCC(F)F)nc3)cc12 (stereo not drawn) [Example 462]	> 15000	1 to 500	1 to 500	> 15000				
C[C@@H](Nc1ccccc1C(=O)O)c1cc(F)cc2c(=O)n(C)c(N3C4CCC3CN(CC(F)(F)F)C4)cc12 [Example 464]					2000 to 15000	1 to 500	1 to 500	2000 to 15000
Cc1nc(C)c(-c2ncc(-c3cc4c(C(C)Nc5ccccc5C(=O)O)cc(F)cc4c(=O)n3C)cc2F)cc1F (stereo not drawn) [Example 471]	2000 to 15000	1 to 500	1 to 500	2000 to 15000				
Cc1ccc(-c2ncc(-c3cc4c([C@@H](C)Nc5ccccc5C(=O)O)cc(F)cc4c(=O)n3C)cc2F)c(C)n1 [Example 472]					2000 to 15000	1 to 500	1 to 500	2000 to 15000
Cc1ccc(-c2ncc(-c3cc4c(C(C)Nc5ccccc5C(=O)O)cc(F)cc4c(=O)n3C)cc2F)cn1 (stereo not drawn) [Example 473]	2000 to 15000	1 to 500	1 to 500	> 15000				
Cc1cc(C(C)Nc2cccc(F)c2C(=O)O)c2cc(-c3ccc(COC(F)(F)F)nc3)n(C)c(=O)c2c1 (stereo not drawn) [Example 474]	> 15000	1 to 500	1 to 500	> 15000				
C[C@@H](Nc1ccccc1C(=O)O)c1cc(F)cc2c(=O)n(C)c(-c3cc(F)c4nn(C)cc4c3)cc12 [Example 483]					> 15000	1 to 500	500 to 2000	> 15000
C[C@@H](Nc1cccc(F)c1C(=O)O)c1cc(F)cc2c(=O)n(C)c(-c3cc(F)c4nn(C)cc4c3)cc12 [Example 484]					> 15000	500 to 2000	500 to 2000	> 15000

Continued, values first:

IC50 ([1]; 6 hours) [nM]	IC50 [2] [nM]	EC50 ([3]; 72 hours) [nM]	EC50 ([4]; 72 hours) [nM]	IC50 ([1]; Homo sapiens, SK-BR-3, 6 h) [nM]	IC50 ([2]; Homo sapiens, T47D, 6 h) [nM]	EC50 ([3]; Homo sapiens, T47D, 72 h) [nM]	EC50 ([4]; Homo sapiens, SK-BR-3, 72 h) [nM]	Compound
> 15000	500 to 2000	500 to 2000	> 15000					Cc1cc([C@@H](C)Nc2cccc(F)c2C(=O)O)c2cc(N3CCc4c(cnn4C)C3)n(C)c(=O)c2c1 [Example 439]
				> 15000	2000 to 15000	2000 to 15000	> 15000	Cc1cc([C@@H](C)Nc2ccccc2C(=O)O)c2cc(N3CCn4c(nnc4C4CC4)C3)n(C)c(=O)c2c1 [Example 445]
				> 15000	1 to 500	1 to 500	> 15000	Cc1cc([C@@H](C)Nc2ccccc2C(=O)O)c2cc(N3CCn4nc(C)cc4C3)n(C)c(=O)c2c1 [Example 446]
				> 15000	1 to 500	1 to 500	2000 to 15000	Cc1csc(N2CCN(c3cc4c([C@@H](C)Nc5ccccc5C(=O)O)cc(F)cc4c(=O)n3C)CC2)n1 [Example 453]
				2000 to 15000	1 to 500	1 to 500	2000 to 15000	Cc1ccc(N2CCN(c3cc4c([C@@H](C)Nc5cccc(F)c5C(=O)O)cc(F)cc4c(=O)n3C)CC2)c(C)n1 [Example 456]
				2000 to 15000	1 to 500	1 to 500	2000 to 15000	Cc1ncncc1N1CCN(c2cc3c([C@@H](C)Nc4ccccc4C(=O)O)cc(F)cc3c(=O)n2C)CC1 [Example 465]
				2000 to 15000	1 to 500	1 to 500	> 15000	C[C@@H](Nc1ccccc1C(=O)O)c1cc(F)cc2c(=O)n(C)c(N3CCN(c4nccs4)CC3)cc12 [Example 466]
				2000 to 15000	1 to 500	1 to 500	2000 to 15000	Cc1cnc(N2CCN(c3cc4c([C@@H](C)Nc5ccccc5C(=O)O)cc(F)cc4c(=O)n3C)CC2)s1 [Example 467]
				2000 to 15000	1 to 500	1 to 500	> 15000	Cc1ncc(N2CCN(c3cc4c([C@@H](C)Nc5cccc(F)c5C(=O)O)cc(F)cc4c(=O)n3C)CC2)s1 [Example 477]
				2000 to 15000	1 to 500	1 to 500	> 15000	Cc1ncc(N2CCN(c3cc4c([C@@H](C)Nc5ccccc5C(=O)O)cc(F)cc4c(=O)n3C)CC2)s1 [Example 478]
				> 15000	500 to 2000	2000 to 15000	2000 to 15000	Cc1cc([C@@H](C)Nc2nccnc2C(=O)O)c2cc(N3CCN(CC(F)(F)F)CC3)n(C)c(=O)c2c1 [Example 485]
				2000 to 15000	1 to 500	1 to 500	2000 to 15000	Cc1nc(N2CCN(c3cc4c([C@@H](C)Nc5cccc(F)c5C(=O)O)cc(F)cc4c(=O)n3C)CC2)cs1 [Example 490]
				2000 to 15000	1 to 500	1 to 500	2000 to 15000	Cc1nc(N2CCN(c3cc4c([C@@H](C)Nc5ccccc5C(=O)O)cc(F)cc4c(=O)n3C)CC2)cs1 [Example 491]
				2000 to 15000	1 to 500	1 to 500	2000 to 15000	Cc1cnc(N2CCN(c3cc4c([C@@H](C)Nc5ccccc5C(=O)O)cc(F)cc4c(=O)n3C)CC2)c(C)n1 [Example 492]
				500 to 2000	1 to 500	1 to 500	2000 to 15000	Cc1ncc(N2CCN(c3cc4c([C@@H](C)Nc5ccccc5C(=O)O)cc(F)cc4c(=O)n3C)CC2)c(C)n1 [Example 495]

Source: patent US20260078103A1, “ISOQUINOLONES AS PI3K INHIBITORS” (OnKure, Inc., priority 2022, published 2026)
